Results as given in US4774248A, “Methods of treating depression and depressive states using 5-phenyl-1,4,5,6-tetrahydropyrimidine derivatives” (priority 1985, dated 1988).
“Also recorded” adds a separate entry of the source.

How the values were obtained:
male mice = experiment: Acute toxicity, intraperitoneal (LD0, LD30, LD60, LD100); assay type: in vivo
Method: (§1) The results of toxicological and neuropsychopharmacological tests which were carried out with the products according to the invention have been summarized below. In these tests, solutions of the said products in distilled water were administered intraperitoneally in a volume of 20 ml/kg to male mice and in a volume of 5 ml/kg to male rats.

mice [1] = experiment: Overall behavior and reactivities in mice; assay type: in vivo; conditions: i.p.
Method in brief: (§2)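 Male mice (20 ml/kg) and male rats (5 ml/kg) dosed intraperitoneally with compound in distilled water.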

rats = experiment: Overall behavior and reactivities in rats; assay type: in vivo; conditions: i.p.
Method in brief: as §2

[2] = tested on: stereotypies induced by apomorphine; experiment: Interaction with apomorphine in rats; assay type: in vivo; conditions: i.p., apomorphine 0.5 mg/kg s.c., hydrochloride
Method: as §1
CRL 41 378 is administered to groups of 12 rats 0.5 h before the subcutaneous injection of 0.5 mg/kg of apomorphine.

[3] = tested on: hypothermia and ptosis induced by reserpine; experiment: Interaction with reserpine; assay type: in vivo; conditions: mice, i.p.
Method in brief: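 Reserpine 2.5 mg/kg i.p. given to male mice in groups of 12; test compound dissolved in distilled water and given i.p. (20 ml/kg) four hours later.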

[4] = tested on: hypothermia, trembling and peripheral cholinergic symptoms induced by oxotremorine; experiment: Interaction with oxotremorine; assay type: in vivo; conditions: mice, i.p.
Method in brief: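 Male mice, groups of 6, given the compound intraperitoneally in distilled water (20 ml/kg) 0.5 h before 0.5 mg/kg oxotremorine i.p. Hypothermia, trembling and peripheral cholinergic symptoms were assessed.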

mice [5] = experiment: Traction; assay type: in vivo; conditions: i.p.
Method: as §1
(§3) The test is performed on groups of 10 mice 30 minutes after the administration of CRL 41 378.

mice [6] = experiment: Electric shock; assay type: in vivo; conditions: i.p.
Method: as §1, §3

mice [7] = experiment: Spontaneous motility (actimeter); assay type: in vivo; conditions: i.p., hydrochloride
Method: as §1
0.5 h after they have received CRL 41 378, the mice (6 per dose, 12 control animals) are placed in an actimeter, where their motility is recorded for 30 minutes.

mice [8] = experiment: Intergroup aggressiveness; assay type: in vivo
Method in brief: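 Male mice housed 3 weeks per group in cage halves split by an opaque partition; groups of 3 given CRL 41 378 i.p. in distilled water.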

mice [9] = experiment: Motility reduced by habituation to the enclosure; assay type: in vivo; conditions: i.p.
Method: as §1
After they have stayed in the actimeters for 18 hours, the mice (6 per dose, 12 control animals) receive CRL 41 378. They are immediately returned to their respective enclosures and, half an hour later, their motility is recorded for 30 minutes.

mice [10] = experiment: Motility reduced by hypoxic aggression (acute hypobaric anoxia); assay type: in vivo; conditions: i.p.
Method: In these tests, solutions of the said products in distilled water were administered intraperitoneally in a volume of 20 ml/kg to male mice and in a volume of 5 ml/kg to male rats.

mice [11] = experiment: Asphyxiant anoxia caused by gallamine triiodoethylate; assay type: in vivo; conditions: i.p., gallamine triiodoethylate 32 mg/kg
Method: as §1
Groups of 10 mice receive CRL 41 378 30 minutes before the intraperitoneal administration of 32 mg/kg of gallamine triiodoethylate (reference curarizing agent).

[12] = tested on: sleep induced by barbital; experiment: Interaction with barbital; assay type: in vivo; conditions: mice, i.p.; barbital 220 mg/kg
Method: as §1
Half an hour after the administration of CRL 41 378, groups of 10 mice receive an intraperitoneal injection of barbital (220 mg/kg).

anesthetized dogs [13] = experiment: Cardiovascular study in anesthetized dogs; assay type: in vivo
Method: Groups of 2 adult dogs (each weighing 10 to 18 kg), anesthetized with nembutal, receive each test product (i) by intraduodenal administration at successive doses of 0.1 mg/kg, 0.5 mg/kg, 1 mg/kg, 2.5 mg/kg, 5 mg/kb, 10 mg/kg and 20 mg/kg, and then (ii) if appropriate, by intravenous administration at a dose of 10 mg/kg. The effects of 10 μg/kg of isoprenaline and/or 2 μg/kg of norepinephrine after the intraduodenal administration of a cumulative dose of 39.1 mg/kg are also assessed.
The following are measured: the total arterial blood pressure, the diastolic arterial blood pressure, the heart rate, the blood flows through the femoral and cerebral arteries and saphenous veins, the rectal temperature, the skin temperature and the pressure of the gases (essentially O2) dissolved in the arterial blood.

[14] = tested on: trembling and head twitches induced by 5-hydroxytryptophan (5-HTP); experiment: Interaction with 5-hydroxytryptophan in association with an MAOI (nialamide); assay type: in vivo, male mice
Method in brief: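 Male mice (groups of 10) got nialamide 20 mg/kg intragastric at T-18 h, test product i.p. in water at T-0.5 h, then (±)-5-HTP 20 mg/kg i.p. at T. Generalized trembling, partial trembling and head twitches scored yes/no over 2 h.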

pregnant rabbits = experiment: Teratogenic effects on pregnant rabbits; assay type: in vivo
anesthetized dogs [15] = experiment: Cardiovascular study in anesthetized dogs; assay type: in vivo; conditions: route not specified
[16] = reserpine 2.5 mg/kg, hydrochloride
[17] = i.p., nialamide + (±)-5-HTP, male mice

CC(=O)N1C=NCC(c2ccccc2)C1.Cl (stereo not shown) [CRL 41 378, 1-acetyl-5-phenyl-1,4,5,6-tetrahydropyrimidine hydrochloride]
toxic signs in the animals treated (male mice; 256 mg/kg i.p.): all the animals treated exhibit dyspnea, substantial salivation and convulsions 10 minutes after administration
LD0 (maximum non-lethal dose) (male mice; intraperitoneal): greater than 256 mg/kg
overall behavior and reactivities (mice [1]; 1 mg/kg): no distinct modification of the behavior and reactivities compared with the control animals
overall behavior and reactivities (mice [1]; 4 mg/kg): moderate mydriasis for 3 h, the maximum intensity being reached 1 h after administration
overall behavior and reactivities (mice [1]; 16 mg/kg, hydrochloride): moderate salivation 1 h after administration; also recorded: moderate hypothermia; also recorded: moderate mydriasis 1 h after administration
overall behavior and reactivities (mice [1]; 64 mg/kg, hydrochloride): sedation for 3 h; also recorded: a decrease in the breathing rate appearing between T+0.5 h and T+1 h after administration; also recorded: moderate hypothermia; also recorded: an increase in the reactivity to touch and vasodilation of the paws for 0.5 h; also recorded: salivation appearing between T+1 h and T+2 h after administration; also recorded: mydriasis for 3 h
overall behavior and reactivities (rats; 0.5 mg/kg): moderate mydriasis for 2 h, the maximum intensity being reached 0.5 h after administration
overall behavior and reactivities (rats; 2 mg/kg): mydriasis for 3 h, the maximum intensity also being reached 0.5 h after administration
overall behavior and reactivities (rats; 32 mg/kg, hydrochloride): a decrease in the breathing rate and muscle tonus for 1 h; also recorded: exophthalmos for 1 h; also recorded: piloerection for 2 h; also recorded: salivation appearing 0.5 h after administration; also recorded: vasodilation of the paws and snout for 0.5 h; also recorded: mydriasis for 2 h, the maximum intensity being reached 0.5 h after administration
action on stereotypies induced by apomorphine [2]: at the two highest doses used (8 and 32 mg/kg), CRL 41 378 seems to cause a moderate decrease in the stereotypies induced by apomorphine; also recorded: moderate antagonism of the stereotyped movements induced by apomorphine in rats
minimal effective dose ([3]; Mus musculus, ip, 24 h after administration, read-out: dose as from which the ptosis induced by reserpine is moderately decreased): ≥ 0.5 mg/kg
action on hypothermia induced by reserpine [3, 16]: at doses of 0.5 mg/kg to 4 mg/kg, CRL 41 378 antagonizes the hypothermia induced by reserpine; also recorded: this effect tends to decrease to nothing at a dose of 16 mg/kg; also recorded: the highest dose used (64 mg/kg) being inactive towards the hypothermia induced by reserpine; also recorded: antagonism of the hypothermia induced by apomorphine, reserpine and oxotremorine in mice
action on ptosis induced by reserpine [3, 16]: moderate decrease in the ptosis induced by reserpine 24 h after administration; also recorded: absence of distinct antagonism of the ptosis induced by reserpine
minimal effective dose ([4]; Mus musculus, ip, read-out: dose as from which the hypothermia induced by oxotremorine is antagonized): ≥ 0.5 mg/kg
action on signs of peripheral cholinergic stimulation induced by oxotremorine ([4]; oxotremorine 0.5 mg/kg): practically no modification of the signs of peripheral cholinergic stimulation induced by oxotremorine
action on trembling induced by oxotremorine ([4]; oxotremorine 0.5 mg/kg): does not modify the intensity of the trembling induced by oxotremorine
action on hypothermia induced by oxotremorine ([4]; oxotremorine 0.5 mg/kg, hydrochloride): very intense at doses of 2 and 4 mg/kg and is then less significant for the highest doses used (16 and 64 mg/kg); also recorded: antagonism of the hypothermia induced by apomorphine, reserpine and oxotremorine in mice
motor incoordination / incapacity (mice [5]): does not cause motor incoordination
convulsant effects of electric shock (mice [6]): without modifying the convulsant effects
lethal effects of electric shock (mice [6]): At the two highest doses studied (16 and especially 64 mg/kg), CRL 41 378 strongly aggravates the lethal effects of electric shock
spontaneous motor activity (mice [7]): at a dose of 16 mg/kg and especially at a dose of 64 mg/kg, CRL 41 378 decreases the spontaneous motor activity of the mice; also recorded: a substantial decrease in the spontaneous motor activity of mice
minimal effective dose (mice [8]; Mus musculus, ip, read-out: dose as from which the intergroup aggressiveness is decreased): ≥ 0.5 mg/kg
intergroup aggressiveness (number of fights) (mice [8]; mice, i.p., hydrochloride): decreases the intergroup aggressiveness as from a dose of 0.5 mg/kg but especially at doses of 2 mg/kg, 4 mg/kg and 16 mg/kg; also recorded: a decrease in the intergroup aggressiveness of mice (at doses which do not decrease the spontaneous motor activity)
resumption in the motor activity of mice accustomed to their enclosure (mice [9]): does not cause a resumption in the motor activity of mice accustomed to their enclosure
lethal effects of hypobaric anoxia (mice [10]): At a dose of 64 mg/kg, CRL 41 378 aggravates the effects of hypobaric anoxia and causes the death of all the animals treated
motor recovery after acute hypobaric hypoxia (mice [10]): at doses of 1 mg/kg, 4 mg/kg and 16 mg/kg, CRL 41 378 does not cause a modification of the motor recovery
time taken for convulsions and death / lethal effects of gallamine triiodoethylate (mice [11]): at the highest dose used (64 mg/kg), CRL 41 378 causes a moderate decrease in the time taken for convulsions and death to occur
duration of the sleep induced by barbital [12]: practically no modification of the duration of the sleep induced by barbital
rectal temperature (anesthetized dogs [13]): increases the rectal temperature
skin temperature (anesthetized dogs [13]): does not cause a distinct modification of the skin temperature
arterial blood pressure (anesthetized dogs [13]; intraduodenal): no effect on the arterial blood pressure by intraduodenal administration
arterial blood pressure (anesthetized dogs [13]; intravenous): hypotensive by intravenous administration
effects of isoprenaline (anesthetized dogs [13]; isoprenaline 10 μg/kg): decreases the effects of isoprenaline on the heart rate
hypertension induced by norepinephrine (anesthetized dogs [13]; norepinephrine 2 μg/kg): decreases the hypertension induced by norepinephrine
analogy with β-adrenergic stimulants in the 5-HTP procedure ([14]; 5-HTP + MAOI): more closely resembles fenoterol
intensity of potentiation of 5-HTP effects ([14]; higher doses, 5-HTP + MAOI, male mice): the potentiation being very intense as from a dose of 16 mg/kg
head twitches [14, 17]: moderately potentiates the head twitches
partial trembling [14, 17]: distinctly potentiates the partial trembling
teratogenic effects (pregnant rabbits): devoid of harmful teratogenic effects on pregnant rabbits
blood flows through the femoral and vertebral arteries (anesthetized dogs [15]): decreases the blood flows through the femoral and vertebral arteries
